# Assay results published in paper PMC7408493, “Implication of Opioid Receptors in the Antihypertensive Effect of a Novel Chicken Foot-Derived Peptide” (Biomolecules, 2020).
# Bridge positions count the residues as written; N and C are the ends. Ends that are not written are not given here. Peptide text beside a SMILES is read from it. I, II: the chains in the order shown. * marks the point of attachment. X1 = NC(=O)CC[C@H](NC(=O)[C@@H](N)CS*)C(=O)N[C@@H](CCC(=O)O)C(=O)O
# Experiments:
# [1] = target: T1, porcine pepsin (Sus scrofa, UniProt P00791); assay: In vitro simulated gastric digestion (G60); assay type: in vitro ADME; conditions: simulated gastric fluid 35 mM NaCl pH 2, porcine pepsin enzyme/substrate 1:20 w/w, 37 °C, 60 min; UHPLC-HRMS extracted ion chromatogram, 20 ppm window, semi-quantified; triplicate aliquots
# T1 construct: purchased Sigma-Aldrich (Madrid, Spain)
# Experimental: For the in vitro simulated peptide GI digestion, a two-stage hydrolysis process was carried out according to Martos et al.. […] was dissolved in simulated gastric fluid (35 mM NaCl at pH 2 for 15 min) and posteriorly subjected to digestion by porcine pepsin (E.C. 3.4.23.1, 3440 units/mg) at an enzyme/substrate ratio of 1: 20 w/w at 37 °C for 60 min. Gastric digestion with pepsin was stopped by adding 1 M NaHCO3 and pH was adjusted to 7.0 with NaOH 1 M (final protein concentration of 5 mg/mL). Aliquots of this gastric digest were collected (G60) and stored at −20 °C until analysis. Duodenal digestions were performed by using, as the starting material, the obtained gastric digests, with the addition of 1 M CaCl2, 0.25 M bis-Tris pH 6.5, 0.25 M bis-Tris pH 6.5, and a 0.125 M bile salts mixture containing equimolar quantities of sodium taurocholate and glycodeoxycholic acid. Posteriorly, the duodenal enzymes trypsin (EC 232-650-8, 10100 BAEE units/mg protein), α-chymotrypsin (EC 232-671-2; 55 units/mg protein), porcine pancreatic lipase (EC 232-619-9) and colipase (EC 259-490-1), prepared in 35 mM NaCl adjusted to pH 7, were added to the solution. Duodenal digestion was carried out at pH 7, 37 °C during 60 (D60). Then, enzymes were inactivated by heating at 95 °C for 10 min in a water bath, followed by cooling to room temperature. Triplicates of aliquots at each time point were collected and stored at −20 °C until analysis.
# (§1) Samples obtained from in vitro peptide simulated digestion and Caco-2 monolayers were diluted 10 times with water (0.1% FA) and centrifuged (15,000 rpm, 15 min, 4 °C). Supernatants were directly analyzed by UHPLC-HRMS to avoid the loss of polar peptide fragments. Extensive clean-up or pre-concentration procedures were not necessary due to the high concentration of peptide and low matrix complexity than plasma samples.
# (§2) The obtained purified solutions from plasma and peptide digests G60 and D60 and from AP and BL chambers in Caco-2 experiment were analyzed using a UHPLC 1290 Infinity II Series coupled to a QqQ 6490 Series (Agilent Technologies, Santa Clara, CA, USA) for tandem mass experiments or a qTOF 6550 Series (Agilent Technologies) for high-resolution mass spectrometry experiments. Chromatographic separation of peptide or their fragments were performed using a Kinetex 2.6 µm EVO C18 column (150 × 2.1 mm, […]) from (Phenomenex, Torrance, USA) as stationary phase and water containing 0.1% formic acid (solvent A) and acetonitrile (solvent B) as mobile phase. The separation was performed in gradient elution as follows: isocratic; 0–0.5 min, 2 % B; 0.5–1 min, 2–6% B; 1–5 min, 6–15% B; 5–6 min, 15–35% B; 6–10 min, 35–98% B; 10–12 min, 98% B isocratic; 12–12.10, 98–2% B. For all runs, 10 μL of the sample (4 °C) was injected, and the flow rate was 0.350 mL/min and the column temperature was 25 °C.
# (§3) For in vitro simulated digestion experiments and Caco-2 monolayer samples, qTOF instrument was used to investigate the presence of unknown peptide fragments and previously in silico predicted peptide fragments by means of its accurate mass. Peptide and its fragments were semi-quantified using the chromatographic peak area observed in the extracted ion chromatograms using a 20 ppm mass window.
# [2] = tested on: Caco-2 cell monolayers; assay: Transepithelial transport through Caco-2 monolayer; assay type: in vitro ADME; conditions: 21 days, TEER > 200 Ω/cm^2, gastric digest G60 added to apical chamber, AP to BL, 1 h, 37 °C, HBSS, content in basolateral chamber in comparison to apical chamber, UHPLC-HRMS, triplicates
# Experimental: Caco-2 cells were obtained from Sigma-Aldrich and were grown Dulbecco’s modified minimum essential medium (DMEM), supplemented with 20% fetal bovine serum (FBS), […] L-glutamine, 100 U/mL penicillin and 100 μg/mL streptomycin at 37 °C in and 5% CO2. Cells were seeded onto Transwell inserts permeable membrane support (0.4 µm pore, 24 mm diameter, 4.7 cm^2 grown surface from Merck Co., Bedford, MA, USA) placed in six-well plates. The seeding density was 12,000 cell/cm^2. The medium was replaced every 2–3 days and cells were growing for 21 days. On the 21st day of the procedure, the integrity of the Caco-2 monolayer was assessed by the measurement of transepithelial electrical resistance (TEER) using a Millicell ERS-2 voltammeter (EMD Millipore, Darmstadt, Germany) selecting the ones with TEER values higher than 200 Ω/cm^2.
# For the transport study, Caco-2 cells, maintained in DMEM, were gently rinsed with Hank’s balanced salt solution (HBSS) and equilibrated for 20 min at 37 °C prior to the transport study. Then, it was evaluated the transepithelial transport of the peptide […] (1 mM) dissolved in HBSS and the digests obtained in the in vitro simulated digestion (G60 and D60). […] or the peptide digests G60 and D60 were added to the apical (AP) chamber and were incubated for 1 h at 37 °C. After this time, triplicates of the AP chamber content and the basolateral (BL) chamber content were taken and stored at −80 °C until ultra-high performance liquid chromatography-high resolution mass spectrometry (UHPLC-HRMS) analyses.
# as §1, §2, §3
# [3] = peptides derived from Manchego cheese; ref Ruiz et al.; cited from earlier work
# Experimental: Simulated in vitro gastrointestinal digestion model was used to investigate the releasing of the amino acid sequences previously predicted in the in silico approach. The peptide was sequentially digested under physiological conditions and the identification of amino acid sequences in samples obtained from both gastric and intestinal digestion were performed by UHPLC-HRMS (Table 2). When the results obtained by the in silico approach and in vitro approach were compared, it was observed that only two of the fourteen predicted peptide fragments from the in silico approach were identified in the i ...
# [4] = tested on: opioid receptors; conditions: non-selective opioid receptor antagonist Naloxone; cited from earlier work
# From the text: However, some bioactive peptides might mediate their physiological effects through its binding to receptors present in the intestinal wall, implying that their absorption is not required. […] These opioid-like peptides are atypical opioid ligands that are released from the hydrolysis of food and present N-terminal sequences that are different fro ...
# [5] = tested on: Caco-2 monolayer; conditions: cited from earlier work
# Experimental: To verify the lack of absorption of the peptide or their resultant fragments in the GI tract an additional study using Caco-2 cells was carried out. The native peptide […] and the samples collected after the simulated gastric and duodenal digestions (G60 and D60, respectively) were incubated in Caco-2 monolayer for 1 h. The peptide and its resultant fragments were identified in the AP chamber from G60 samples, however, only 0.10–0.25% were transported to the BL chamber (Table 3). Therefore, the presence of native […] in the AP chamber after 1 h of incubation and the absence of the ...
# [6] = tested on: spontaneously hypertensive rats; assay: Systolic blood pressure in SHR with or without Naloxone (tail-cuff); assay type: in vivo, rat; conditions: 50 mg/kg bw oral, Naloxone 3 mg/kg bw or saline, 6 h post-administration, n = 6
# Experimental: Male, 17–20-week-old, SHR, weighing 286 ± 4 g were used in this study. All these animals were obtained from Charles River Laboratories Spain. The SHR were housed at a temperature of 23 °C with 12 h light/dark cycles and had free access to tap water and a standard diet (A04 Panlab). Before the experiments, rats were submitted to a training period of 10 days to guarantee the reliability of the measurements. To evaluate if […] presented an opioid-mediated effect, SHR received via subcutaneous 100 µL of Naloxone (3 mg/kg bw), and afterward a single oral dose (1 mL) of […] (10 mg/kg bw). Additionally, water, Captopril (50 mg/kg bw), known antihypertensive drug, and chicken foot hydrolysate Hpp11 (55 mg/kg bw), were administered as controls. Captopril and Hpp11 can inhibit ACE in vivo. […] Systolic blood pressure (SBP) was recorded in the rats by the tail-cuff method before and 2, 4, and 6 h post-administration. […]
# Results from transepithelial transport studies are presented as means ± standard error means (SEM). […] The results for the experiments investigating the participation of opioid receptors in the […], Captopril and Hpp11 antihypertensive effect were expressed as the mean ± SEM of six animals per group (heterogeneity was tested by Levene’s test) and were analyzed by one-way ANOVA (Tukey’s test) using IBM SPSS Statistics 20.0 software. […]
# T1 sequence (P00791 60-385): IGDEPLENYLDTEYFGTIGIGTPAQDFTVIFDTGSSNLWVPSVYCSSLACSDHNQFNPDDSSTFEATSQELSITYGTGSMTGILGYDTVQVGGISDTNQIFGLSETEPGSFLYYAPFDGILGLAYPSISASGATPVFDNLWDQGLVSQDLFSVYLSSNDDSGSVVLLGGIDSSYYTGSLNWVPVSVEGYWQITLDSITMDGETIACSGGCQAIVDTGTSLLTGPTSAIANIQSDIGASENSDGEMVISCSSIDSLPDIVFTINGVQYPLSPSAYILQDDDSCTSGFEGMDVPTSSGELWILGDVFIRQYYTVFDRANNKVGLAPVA
Molecule,Area G60 (chromatographic peak area) [1],G60 % Transport [2] [%],further results
CC(C)[C@H](NC(=O)[C@H](C)N)C(=O)N[C@@H](Cc1ccccc1)C(=O)N[C@@H](CCC(N)=O)C(=O)N[C@@H](Cc1c[nH]cn1)C(=O)N[C@@H](CC(N)=O)C(=O)N[C@@H](CSSC[C@H](N)C(=O)N[C@@H](CCC(N)=O)C(=O)N[C@@H](CCC(=O)O)C(=O)O)C(=O)N[C@@H](CCC(N)=O)C(=O)N[C@@H](CCC(=O)O)C(=O)O (H-AVFQHNC(X1)QE-OH),"93,694",0.15,–
VRYL [peptide derived from Manchego cheese],–,–,Resistance to GI digestion [3]: resistance to GI digestion
"YGLF [α-lactorphin, milk-derived opioid-like antihypertensive peptide]",–,–,BP-lowering effect after administration of Naloxone [4]: abolished
AVFQHN [AVFQHN],"685,482",0.10,–
QHNCQE [QHNCQE],"288,536",–,–
CC(C)[C@H](NC(=O)[C@H](C)N)C(=O)N[C@@H](Cc1ccccc1)C(=O)O [AVF] (H-Ala-Val-Phe-OH),"200,712",0.15,–
CC(C)[C@H](NC(=O)[C@H](C)N)C(=O)N[C@@H](Cc1ccccc1)C(=O)N[C@@H](CCC(N)=O)C(=O)N[C@@H](Cc1c[nH]cn1)C(=O)N[C@@H](CC(N)=O)C(=O)N[C@@H](CSSC[C@H](NC(=O)[C@H](CC(N)=O)NC(=O)[C@H](Cc1c[nH]cn1)NC(=O)[C@H](CCC(N)=O)NC(=O)[C@H](Cc1ccccc1)NC(=O)[C@@H](NC(=O)[C@H](C)N)C(C)C)C(=O)N[C@@H](CCC(N)=O)C(=O)N[C@@H](CCC(=O)O)C(=O)O)C(=O)N[C@@H](CCC(N)=O)C(=O)N[C@@H](CCC(=O)O)C(=O)O (I: H-AVFQHNCQE-OH / II: H-AVFQHNCQE-OH; disulfide I:7-II:7),"605,812",0.11,–
AVFQHNC [AVFQHNC],"220,051",0.60,–
RADHP [antihypertensive peptide reported by Miguel et al],–,–,Transport through Caco-2 monolayer [5]: lack of transported through Caco-2 monolayer
AVFQH [AVFQH],"155,533",0.17,–
C[C@H](CS)C(=O)N1CCC[C@H]1C(=O)O [Captopril],–,–,BP reduction in naloxone-treated and saline-treated rats [6]: able to reduce BP in rats treated with Naloxone and in rats treated with saline
KKYNVPQL [peptide derived from Manchego cheese],–,–,Resistance to GI digestion [3]: resistance to GI digestion
CC(C)[C@H](NC(=O)[C@H](C)N)C(=O)N[C@@H](Cc1ccccc1)C(=O)N[C@@H](CCC(N)=O)C(=O)N[C@@H](Cc1c[nH]cn1)C(=O)N[C@@H](CC(N)=O)C(=O)N[C@@H](CSSC[C@H](NC(=O)[C@H](CC(N)=O)NC(=O)[C@H](Cc1c[nH]cn1)NC(=O)[C@@H](N)CCC(N)=O)C(=O)N[C@@H](CCC(N)=O)C(=O)N[C@@H](CCC(=O)O)C(=O)O)C(=O)N[C@@H](CCC(N)=O)C(=O)N[C@@H](CCC(=O)O)C(=O)O (I: H-AVFQHNCQE-OH / II: H-QHNCQE-OH; disulfide I:7-II:4),"136,056",0.15,–
